Test results published in patent publication US20060147479A1, “Angiogenic medical cyanoacrylate adhesive” (priority 2002, published 2006).

Legend:
[1] = system: angiogenesis; details: cited from earlier work
[2] = Bond strength of tributyrin/cyanoacrylate blend on costal cartilage (Nene MC3000); type: physicochemical; details: 5% to 50% (w/w) tributyrin in cyanoacrylate; held 1 minute, cured an additional hour in aqueous conditions
Description: 0.5 g of the sterile tributyrin was added to cyanoacrylate (9.5 g) to produce a 5% (w/w) blend in a sterile plastic universal tube. This was mixed for 2 minutes to ensure a homogenous blend. 40 μl aliquots of the blended adhesive were applied to freshly cut surfaces of costal cartilage. The two surfaces were held together for 1 minute allowing fixation and curing was allowed to continue for an additional hour in aqueous conditions. The bond strength was tested using a Nene MC3000 machine, where the applied force required to separate the bonded pieces of cartilage was recorded.

[3] = Premature curing of cyanoacrylate by angiogenic agent; type: physicochemical; details: in combination with cyanoacrylate
[4] = Release of tributyrin from cured blended adhesive disks into water, gas chromatography; type: physicochemical; details: 5% w/w tributyrin cyanoacrylate sample; 2 ml water, 50° C., 1, 5 or 7 days with continuous agitation
Description: 0.5g of the sterile tributyrin was added to cyanoacrylate (9.5 g) to produce a 5% (w/w) blend in a sterile plastic universal tube. This was mixed for 2 minutes to ensure a homogenous blend. Small disks of the blended adhesive were cast onto a basic solution (dilute triethylamine 0.1% aq). The disks were removed, washed briefly and dried. The disks were then placed into 2 ml water and stored at 50° C. for 1, 5 or 7 days with continuous agitation. The water was removed then added to 2 mls dichloromethane in order to extract any released tributyrin. The dichloromethane layer was analysed using gas chromatography and the amount of tributyrin recorded. The disks were dried and then placed into fresh water at 50° C. for an additional day. The amount of tributyrin released into the fresh water was measured as described for the first samples.

| SMILES | local release sufficient to achieve the desired angiogenic effect [1] [ng] | adhesive property (bond strength; applied force required to separate the bonded pieces of cartilage) [2] | premature cure of cyanoacrylate [3] | tributyrin released from cured adhesive disks [4] |
| --- | --- | --- | --- | --- |
| CCCC(=O)O [butyric acid, butanoic acid] | 10 to 1000 | – | – | – |
| CCCC(=O)OCC(COC(=O)CCC)OC(=O)CCC [tributyrin, glcerol tributyrate; 1,2,3-(propyl)tributanoate] | – | without an unacceptable loss of adhesive property | do not cause cyanoacrylate to prematurely cure | released from a 5% w/w tributyrin cyanoacrylate sample over a 7 day period |
